We go through 2 compounds from US7666646B2, “Crystal structure of human Pim-1 kinase protein complexes and binding pockets thereof, and uses thereof in drug design” (priority 2003, dated 2010).

One experiment addresses Pim-1 (Homo sapiens, UniProt P11309). Kind of experiment: Coupled-enzyme kinase assay with S6 peptide substrate (Pim-1 IC50 determination). The class given is biochemical. The method, then: The assay was carried out in a total volume of 100 μl in 0.1 M HEPES buffer (pH 7.6) containing 10 mM MgCl2, 2.5 mM phosphoenolpyruvate, 0.2 mM NADH, 30 μg/ml pyruvate kinase, 10 μg/ml lactate dehydrogenase (Roche Diagnostics Corp., Indianapolis, Ind.) and 2 mM DTT in a 96-well plate, and read at 340 nm at 30° C. on a Spectramax spectrophotometer (Molecular Devices, Sunnyvale, Calif.). […] The reaction was started by addition of ATP after 10 minutes pre-incubation of the reaction mixture at 30° C. […] Kinetic analysis was performed by non-linear regression fitting using the program Prism (GraphPad software, San Diego, Calif., USA).

A further experiment relates to PI3K. Particulars: cited from earlier work.
Another experiment addresses Casein kinase 2 (CK2) (Homo sapiens, UniProt P68400). To be noted: Davies et al., supra; read-out: IC50 / potency of Casein kinase 2 inhibition; cited from earlier work.
Another experiment addresses PKA (Homo sapiens, UniProt P17612). To be noted: in the presence of 50 μM LY294002; cited from earlier work.

Like-named read-outs stand apart in the source and are kept apart here.

Pim-1, sequence (P11309 whole entry): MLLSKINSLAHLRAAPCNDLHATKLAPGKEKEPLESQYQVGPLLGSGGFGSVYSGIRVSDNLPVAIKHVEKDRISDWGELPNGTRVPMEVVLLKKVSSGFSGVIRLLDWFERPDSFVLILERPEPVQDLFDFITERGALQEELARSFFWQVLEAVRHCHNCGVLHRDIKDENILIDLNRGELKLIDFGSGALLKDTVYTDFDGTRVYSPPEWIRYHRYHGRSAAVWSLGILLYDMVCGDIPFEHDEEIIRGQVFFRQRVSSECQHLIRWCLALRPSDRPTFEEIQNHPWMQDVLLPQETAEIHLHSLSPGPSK
Casein kinase 2 (CK2), sequence (P68400 whole entry): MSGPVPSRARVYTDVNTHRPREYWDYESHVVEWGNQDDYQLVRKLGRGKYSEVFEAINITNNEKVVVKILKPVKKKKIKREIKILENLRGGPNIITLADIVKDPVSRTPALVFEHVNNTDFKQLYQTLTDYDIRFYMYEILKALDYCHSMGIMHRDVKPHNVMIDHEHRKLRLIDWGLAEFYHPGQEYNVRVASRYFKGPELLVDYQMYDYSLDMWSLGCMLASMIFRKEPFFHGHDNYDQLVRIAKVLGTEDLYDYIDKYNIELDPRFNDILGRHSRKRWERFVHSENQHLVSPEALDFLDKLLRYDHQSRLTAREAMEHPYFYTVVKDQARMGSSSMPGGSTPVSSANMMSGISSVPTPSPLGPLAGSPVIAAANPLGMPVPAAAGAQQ

On to `COC(=O)[C@]1(O)C[C@@H]2O[C@@]1(C)n1c3ccccc3c3c4c(c5c6ccccc6n2c5c31)C(=O)NC4` [K-252a], for which the IC50 at Pim-1 worked out at 0.15 µM. Besides, the “potency of Pim-1 inhibition” value on Pim-1 (panel of kinase inhibitors, refers to Table 1) is “sub-micromolar”.

Take `O=c1cc(N2CCOCC2)oc2c(-c3ccccc3)cccc12` [LY294002, 2-(4-morpholinyl)-8-phenyl-4H-1-benzopyran-4-one]: the IC50 in the experiment with PI3K (Davies et al., Biochem. J. 351: 95-105 (2000), read-out: potency of PI3K inhibition reported by Davies et al.) is […]; with PI3K (Mizuno et al., FEBS Lett. 330: 114-116 (1993) as cited, read-out: IC50 for PI3K, as originally described), […]; at Casein kinase 2 (CK2), 6.9 µM. The “reduction of PKA activity” value at PKA is 9%.
